Numbers after ± are expanded uncertainties.
Test: relative permittivity at various frequencies (dimensionless)
Details: 101 kPa, Liquid, Frequency=2 MHz, capacitive measurement method

Row | SMILES | relative permittivity (278.15 K) | relative permittivity (280.65 K) | relative permittivity (283.15 K) | relative permittivity (285.65 K) | relative permittivity (288.15 K) | relative permittivity (290.65 K) | relative permittivity (293.15 K) | relative permittivity (295.65 K) | relative permittivity (298.15 K) | relative permittivity (300.65 K) | relative permittivity (303.15 K) | relative permittivity (305.65 K) | relative permittivity (308.15 K) | relative permittivity (310.65 K) | relative permittivity (313.15 K) | relative permittivity (315.65 K) | relative permittivity (318.15 K) | relative permittivity (320.65 K) | relative permittivity (323.15 K) | relative permittivity (325.65 K) | further results
1 | OCC1CCCO1 (stereo not given) [2-tetrahydrofurylmethanol] | 15.2 ± 0.1 | 15 ± 0.1 | 15 ± 0.1 | 14.9 ± 0.1 | 14.8 ± 0.1 | 14.7 ± 0.1 | 14.6 ± 0.1 | 14.5 ± 0.1 | 14.4 ± 0.1 | 14.4 ± 0.1 | 14.3 ± 0.1 | 14.2 ± 0.1 | 14.1 ± 0.1 | 14 ± 0.1 | 13.9 ± 0.1 | 13.8 ± 0.1 | 13.8 ± 0.1 | 13.6 ± 0.1 | 13.5 ± 0.1 | 13.5 ± 0.1 | relative permittivity (328.15 K): 13.4 ± 0.1; relative permittivity (330.65 K): 13.3 ± 0.1; relative permittivity (333.15 K): 13.2 ± 0.1; relative permittivity (335.65 K): 13.1 ± 0.1; relative permittivity (338.15 K): 13 ± 0.1
2 | Cc1ccc(C=O)o1 [5-methylfurfural] | 45.2 ± 0.2 | 44.5 ± 0.2 | 43.7 ± 0.2 | 43 ± 0.2 | 42.3 ± 0.2 | 41.6 ± 0.2 | 40.9 ± 0.2 | 40.2 ± 0.2 | 39.4 ± 0.2 | 38.7 ± 0.2 | 38 ± 0.2 | 37.2 ± 0.2 | 36.4 ± 0.2 | 35.8 ± 0.2 | 35.1 ± 0.2 | 34.4 ± 0.2 | 33.7 ± 0.2 | 33.6 ± 0.2 | 32.4 ± 0.2 | 31.7 ± 0.2 | relative permittivity (328.15 K): 31.1 ± 0.2; relative permittivity (330.65 K): 30.4 ± 0.2; relative permittivity (333.15 K): 29.8 ± 0.2; relative permittivity (335.65 K): 29.1 ± 0.2; relative permittivity (338.15 K): 28.4 ± 0.2
